Entries after “also recorded” stand apart in the source; their conditions may differ.
Tests used:
[1] = tested on: U937 cells; assay: Cell cycle progression and cell death by DAPI staining and scatter; format: cell-based, human; conditions: Vidaza 2.5 μM, Dacogen 0.625 μM, 20 hours
Procedure: (§1) FIGS. 9 and 10 show an embodiment of the invention used to analyze the effects of the DNA methyltransferase inhibitor drugs Vidaza® cytidine analog and Dacogen® cytidine analog on cultured U937 cells. See Example 1 in U.S. Ser. No. 61/120,320 for detailed cell culture, staining, and flow cytometry protocols similar to those used in this example. Here, to analyze the effects of Vidaza® cytidine analog and Dacogen® cytidine analog on cell cycle progression and cell death, U937 cells were treated with Vidaza® cytidine analog (5-Azacytidine) at a concentration of 2.5 μM, or Dacogen® cytidine analog (5-Aza-2′-deoxycytidine) at a concentration of 0.625 μM. The cells were continuously incubated with the drugs for 20 hours in 10% FBS RPMI, fixed, permeabilized, and then stained with DAPI, or stained with DAPI and immunolabeled with antibodies against DMNT 1.
(§2) (See Alberts et al., Molecular Biology of the Cell, 4th Ed., Chapter 17 for an overview of the cell cycle). […] Additionally, the experimental results in this example may be used to identify therapeutic agents that can be used in combination with either Vidaza® cytidine analog or Dacogen® cytidine analog. […]

[2] = tested on: erythroblast (TF-1) cell line; assay: DNA content by DAPI staining, flow cytometry; format: cell-based, human; conditions: for cell cycle arrest and cell death by DNA content (sub-2n through 4n, DAPI staining): TF-1 erythroblasts, several dilutions, 24 hours
Excerpt: DNA content can be directly monitored using fluorescent dyes that bind DNA in the major or minor groove. This labeled DNA can be detected and cellular DNA content can be determined using flow cytometry or other methods as described below. DNA content can be used to indicate the status of a cell or population of cells. The effect of a compound on both the cell cycle and cell death pathways can be determined by monitoring changes in DNA content within a single cell or a population of cells. For example, cell cycle arrest in G1 or G2/M phases of the cell cycle may appear as an increase in 2n or 4n DNA content respectively while an increase in cell death may appear as an increase in sub-2n DNA content.
(§3) In the example, erythroblast (TF-1) and U937 cell lines, as well as healthy bone marrow mononuclear cells, were treated with a test modulator (ON01910.Na) over several dilutions for 24 hours. Flow cytometry was used to obtain multiple intracellular readouts or nodes, including levels of protein phosphorylation, levels of protein expression, cell size and shape, and DNA content.

[3] = tested on: erythroblast (TF-1) cell line; assay: Cell death by forward and side scatter of light; format: cell-based, human; conditions: TF-1 erythroblasts, 24 and 48-hour continuous treatment
Excerpt: In some embodiments of the invention, the activatible elements may function in cell death, including apoptosis or necrosis. A person of ordinary skill in the art may analyze cell death using stains, biomarkers, assays, or kits to identify node states associated with cell cycle progression and cell death without departing from the scope of the invention. By way of example, stains used to identify cell death include, but are not limited to amine aqua, propidium iodide, 4′,6-diamidino-2-phenylindole (DAPI), bromodeoxyuridine (BrdU), acridine orange, SYTOX, and TUNEL. A person of ordinary skill in the art will appreciate that several of the aforementioned stains, such as DAPI, may also be used to determine the cell cycle of a single cell or population of cells. Cell death may also be identified using the forward versus side scatter dot plots obtained during flow cytometry.
as §3

[4] = tested on: TF-1 cells; assay: Cell cycle nodes (p-Cdk1 Y15, p-Histone H3 S28, Cyclin B1) by flow cytometry; format: cell-based, human
Procedure: as §3
FIGS. 4-6 show the effects of two concentrations of ON01910.Na on different markers or nodes whose activation status correlates with cell cycle progression. […] Cdk1 activation normally occurs at the end of G2, so increased Cdk1 levels […] at tyrosine 15 are consistent with cell cycle arrest in G2 or early M phases (See Alberts et al, Molecular Biology of the Cell, 4th Ed., Chapter 17 for a detailed discussion of the cell cycle).
Phosphorylation of histone H3 is a marker of chromatin condensation and entry into M phase (See Alberts et al, Molecular Biology of the Cell, 4th Ed., FIG. 4-35 for discussion of histone modifications). Continuous treatment with ON01910.Na for 24-hours enhances H3 (Ser28) phosphorylation. The effects of these two doses on the node state (serine 28 phosphorylation of H3) are detectable using flow cytometry. […] FIG. 7 presents a summary of the effects of ON01910.Na treatment on the Cyclin B1, p-Cdk1 Y15, and pH3 S28 cell cycle nodes.

[5] = tested on: U937 cells; assay: Cell cycle nodes by flow cytometry, ON01910.Na titration; format: cell-based, human
Procedure: as §3
(§4) The findings shown in FIGS. 4 through 7 were tested in other cell types.

[6] = tested on: healthy bone marrow mononuclear cells; assay: as above; format: cell-based
Procedure: as §3, §4

[7] = tested on: healthy bone marrow mononuclear cells; assay: Viability of healthy BMMCs, ON01910.Na titration; format: cell-based
Procedure: as §3, §4

[8] = tested on: DNMT1; assay: DNMT1 expression by immunolabeling, flow cytometry; format: cell-based, human; conditions: U937 cells, Vidaza 2.5 μM, 20 hours
Procedure: as §1, §2

[9] = TF-1 erythroblasts, two concentrations, 24 hours continuous

SMILES | effect on cell cycle progression and cell death (DAPI frequency plots, scatter) [1] | 4n DNA content peak ([2]; TF-1 cells, 0.12 μM and 0.37 μM) | cell cycle arrest and cell death by DNA content (sub-2n through 4n, DAPI staining) [2] | cell cycle arrest and cell death by DNA content (sub-2n through 4n, DAPI staining) ([2]; listed as ON-01910.Na) | cell death by scatter properties [3] | cell death by scatter properties ([3]; listed as ON-01910.Na) | cell cycle arrest indicated by Cyclin B1, p-Cdk1 Y15 and pH3 S28 nodes ([4]; TF-1 cells, various concentrations, 24 hours) | Cyclin B1 expression ([4]; TF-1 erythroblasts, increased concentration) | p-Cdk1 Y15 phosphorylation [4, 9] | p-Histone H3 S28 phosphorylation [4, 9] | changes in cell cycle signaling molecules [5] | expression of Cyclin B1 ([5]; 24 hours) | phosphorylation of Cdk1 ([5]; 24 hours) | phosphorylation of H3 ([5]; 24 hours) | cycling bone marrow mononuclear cells as measured by p-Cdk1 Y15 ([6]; BMMCs) | Cyclin B1 expression levels ([6]; healthy BMMCs) | viability of healthy bone marrow mononuclear cells [7] | expression of DNMT1 [8]
Nc1ncn([C@H]2C[C@H](O)[C@@H](CO)O2)c(=O)n1 [Dacogen, 5-Aza-2′-deoxycytidine] | S phase cell cycle arrest; also recorded: inducing arrest at S phase |  |  |  |  |  |  |  |  |  |  |  |  |  |  |  |  | 
COc1cc(OC)c(/C=C/S(=O)(=O)Cc2ccc(OC)c(NCC(=O)[O-])c2)c(OC)c1.[Na+] [ON01910.Na] |  | increases in a dose-dependent manner | induces arrest in G2/M and cell death in a dose-dependent manner | induces arrest in G2/M and cell death | induce cell death, with a greater magnitude of cell death observed following longer treatment and higher dose; also recorded: induces cell death in erythroblasts | induces cell death | arrest in the G2 or M phases of the cell cycle in a dose dependent manner | more cells express Cyclin B1; also recorded: mediates an increase in cyclin B1 | increases dephosphorylation of p-Cdk1 at tyrosine 15; also recorded: mediates dephosphorylation of p-Cdk1^Y15 | histone 3 serine 28 phosphorylation increases; also recorded: mediates an increase in p-HistoneH3^S28 | simultaneous changes in cell cycle signaling molecules at the same drug concentration | increased | decreased phosphorylation of Cdk1 | increased phosphorylation of H3 | dose dependent decrease of cycling bone marrow mononuclear cells | Cyclin B1 expression levels increase | does not significantly alter viability | 
Nc1ncn([C@@H]2O[C@H](CO)[C@@H](O)[C@H]2O)c(=O)n1 [Vidaza, 5-Azacytidine] | increased cell death; also recorded: inducing cell death |  |  |  |  |  |  |  |  |  |  |  |  |  |  |  |  | decreased expression; also recorded: mediates a decrease in DNMT1

From patent US20140057865A1, “ANALYSIS OF NODES IN CELLULAR PATHWAYS” (Nodality, Inc., priority 2009, published 2014)
